Experimental data: ChEMBL document CHEMBL1152778, “Design, synthesis, and biological evaluation of (2R,alphaS)-3,4-dihydro-2-[3-(1,1,2,2-tetrafluoroethoxy)phenyl]-5-[3-(trifluoromethoxy)-phenyl]-alpha-(trifluoromethyl)-1(2H)-quinolineethanol as potent and orally active cholesteryl ester transfer protein inhibitor” (J Med Chem, 2009)
The source made the active and inactive calls. No cut-off for these calls is given here.

How the values were obtained:
[1] = system: Mus musculus; assay: Increase in HDLC level in normal chow diet-fed human CETP transgenic mouse model at 3 mg/kg, po for 5 days measured after 2 hrs of last dose; assay type: functional, organism-based; set-up: dose 3 mg/kg
[2] = system: Cynomolgus monkey; assay: Ex vivo inhibition of CETP in normal chow diet-fed cynomolgus monkey at 30 mg/kg, po for 5 days by Roar assay; assay type: functional; details: Macaca fascicularis, 120 h
[3] = Oral bioavailability in monkey at 10 mg/kg; assay type: ADME, organism-based, Macaca mulatta; details: rhesus monkey, in vivo
[4] = target: T1, Cholesteryl ester transfer protein (Homo sapiens, UniProt P11597); assay: Inhibition of CETP-mediated transfer of cholesteryl ester to LDL/VLDL in human plasma by Roar assay; assay type: cell-free
T1 sequence (P11597 whole entry): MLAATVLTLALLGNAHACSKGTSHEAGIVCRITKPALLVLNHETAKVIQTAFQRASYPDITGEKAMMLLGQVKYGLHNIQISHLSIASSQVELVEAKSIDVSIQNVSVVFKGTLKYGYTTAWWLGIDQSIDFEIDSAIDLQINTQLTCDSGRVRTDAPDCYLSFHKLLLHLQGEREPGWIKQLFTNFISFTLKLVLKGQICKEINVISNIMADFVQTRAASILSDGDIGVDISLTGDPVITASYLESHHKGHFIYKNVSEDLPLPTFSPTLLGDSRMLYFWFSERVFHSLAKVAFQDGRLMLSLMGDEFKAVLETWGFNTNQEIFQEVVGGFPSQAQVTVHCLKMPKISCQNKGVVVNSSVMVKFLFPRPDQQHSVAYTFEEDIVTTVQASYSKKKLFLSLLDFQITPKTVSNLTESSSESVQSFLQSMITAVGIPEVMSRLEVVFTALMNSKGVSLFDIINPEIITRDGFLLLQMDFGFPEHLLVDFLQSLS

[5] = system: Hamster; assay: Increase in HDLC level in high-fat fed hamster model at 10 mg/kg, po for 5 days measured after 2 hrs of last dose; assay type: functional, Cricetinae
[6] = target: Phospholipid transfer protein (Homo sapiens) (UniProt P55058); assay: Inhibition of PLTP activity assessed as phosphatidylcholine transferred from [3H]phosphatidylcholine (dipalmitoyl)-labeled liposomes to HDL by cell based liquid scintillation counter
Chain of Phospholipid transfer protein (Homo sapiens) (P55058 whole entry): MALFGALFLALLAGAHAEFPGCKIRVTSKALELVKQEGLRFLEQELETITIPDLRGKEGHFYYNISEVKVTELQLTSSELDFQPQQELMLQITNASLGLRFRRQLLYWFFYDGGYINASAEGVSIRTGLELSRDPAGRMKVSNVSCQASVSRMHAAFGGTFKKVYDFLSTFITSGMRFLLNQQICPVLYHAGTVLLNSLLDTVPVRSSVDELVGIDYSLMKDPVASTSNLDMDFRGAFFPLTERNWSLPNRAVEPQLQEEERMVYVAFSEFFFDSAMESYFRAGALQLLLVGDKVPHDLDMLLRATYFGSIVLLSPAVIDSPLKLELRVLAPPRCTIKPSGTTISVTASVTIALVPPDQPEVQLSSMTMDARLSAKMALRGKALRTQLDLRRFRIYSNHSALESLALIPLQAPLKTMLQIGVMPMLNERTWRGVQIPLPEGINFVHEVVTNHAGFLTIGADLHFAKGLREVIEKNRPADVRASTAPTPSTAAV

[7] = target: T2, Hepatic triacylglycerol lipase (Homo sapiens) (UniProt P11150); assay: Inhibition of hepatic lipase activity assessed as release of free fatty acid from hydrolysis of VLDL by cell based assay
T2 sequence (whole entry): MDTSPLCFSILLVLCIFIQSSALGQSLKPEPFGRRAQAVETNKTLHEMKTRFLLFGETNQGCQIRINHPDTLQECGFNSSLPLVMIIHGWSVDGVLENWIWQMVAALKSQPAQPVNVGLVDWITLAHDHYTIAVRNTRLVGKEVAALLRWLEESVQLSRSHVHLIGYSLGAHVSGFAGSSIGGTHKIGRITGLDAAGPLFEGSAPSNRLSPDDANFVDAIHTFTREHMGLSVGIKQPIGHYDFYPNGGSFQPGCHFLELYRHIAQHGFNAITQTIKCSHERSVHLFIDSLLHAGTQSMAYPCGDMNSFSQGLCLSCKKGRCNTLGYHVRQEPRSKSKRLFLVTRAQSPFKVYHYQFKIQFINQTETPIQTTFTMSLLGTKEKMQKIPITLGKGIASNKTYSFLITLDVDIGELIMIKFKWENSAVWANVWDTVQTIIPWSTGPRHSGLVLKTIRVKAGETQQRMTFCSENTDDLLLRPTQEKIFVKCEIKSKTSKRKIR

[8] = system: Cynomolgus monkey; assay: Increase in HDLC level in po dosed normal chow diet-fed cynomolgus monkey; assay type: functional, organism-based; details: Macaca fascicularis
[9] = Plasma concentration in normal chow diet-fed cynomolgus monkey at 10 mg/kg, po for 5 days; assay type: ADME, organism-based, Macaca fascicularis; set-up: dose 10 mg/kg, route oral
[10] = Inhibition of CETP-mediated transfer of cholesteryl ester to LDL/VLDL in monkey plasma by Roar assay; assay type: cell-free; details: Macaca mulatta
[11] = Inhibition of CETP-mediated transfer of cholesteryl ester to LDL/VLDL in hamster plasma by Roar assay; assay type: cell-free; details: Cricetinae
[12] = target: T3, Microsomal triglyceride transfer protein large subunit (Homo sapiens) (UniProt P55157); assay: Inhibition of microsomal triglyceride transfer protein by cell based assay
T3 sequence (whole entry): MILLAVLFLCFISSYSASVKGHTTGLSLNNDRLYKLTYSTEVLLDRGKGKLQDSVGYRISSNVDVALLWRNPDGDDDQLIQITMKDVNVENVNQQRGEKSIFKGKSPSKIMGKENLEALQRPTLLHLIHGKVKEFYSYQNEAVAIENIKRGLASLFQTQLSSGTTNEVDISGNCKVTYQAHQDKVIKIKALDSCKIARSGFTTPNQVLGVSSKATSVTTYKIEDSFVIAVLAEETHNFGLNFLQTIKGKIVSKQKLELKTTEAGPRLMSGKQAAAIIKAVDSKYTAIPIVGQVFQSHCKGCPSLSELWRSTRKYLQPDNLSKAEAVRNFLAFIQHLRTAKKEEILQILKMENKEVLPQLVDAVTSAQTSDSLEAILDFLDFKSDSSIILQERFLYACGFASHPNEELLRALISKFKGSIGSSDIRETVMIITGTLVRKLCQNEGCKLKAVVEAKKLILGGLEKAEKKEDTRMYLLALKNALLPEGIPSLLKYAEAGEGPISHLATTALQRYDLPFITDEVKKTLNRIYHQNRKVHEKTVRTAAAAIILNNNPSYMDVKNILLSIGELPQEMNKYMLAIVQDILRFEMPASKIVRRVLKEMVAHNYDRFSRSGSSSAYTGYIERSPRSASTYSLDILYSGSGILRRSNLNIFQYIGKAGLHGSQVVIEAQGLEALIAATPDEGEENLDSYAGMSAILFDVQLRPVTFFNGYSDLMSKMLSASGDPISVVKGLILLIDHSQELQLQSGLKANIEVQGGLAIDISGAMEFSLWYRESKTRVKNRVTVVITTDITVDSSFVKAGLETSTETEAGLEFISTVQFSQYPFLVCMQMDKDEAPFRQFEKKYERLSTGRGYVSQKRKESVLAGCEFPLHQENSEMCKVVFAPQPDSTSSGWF

[13] = Plasma concentration in normal chow diet-fed cynomolgus monkey at 3 mg/kg, po for 5 days; assay type: ADME, organism-based, Macaca fascicularis; set-up: dose 3 mg/kg, route oral
[14] = system: Cynomolgus monkey; assay: Ex vivo inhibition of CETP in normal chow diet-fed cynomolgus monkey at 3 mg/kg, po for 5 days by Roar assay; assay type: functional; details: Macaca fascicularis, 120 h
[15] = system: Cynomolgus monkey; assay: Increase in HDLC level in normal chow diet-fed cynomolgus monkey at 3 mg/kg, po for 5 days measured after 10 hrs of last dose; assay type: functional, Macaca fascicularis
[16] = target: T1, Cholesteryl ester transfer protein; assay: Inhibition of human plasma-derived CETP activity by scintillation proximity assay; assay type: cell-free
[17] = system: Hamster; assay: Increase in HDLC level in po dosed high-fat fed hamster model; assay type: functional, organism-based; details: Cricetinae
[18] = system: Mus musculus; assay: Increase in HDLC level in po dosed normal chow diet-fed human CETP transgenic mouse model; assay type: functional, organism-based
[19] = Oral bioavailability in dog at 10 mg/kg; assay type: ADME, organism-based, Canis lupus familiaris; details: in vivo
[20] = target: T4, Phosphatidylcholine-sterol acyltransferase (Homo sapiens) (UniProt P04180); assay: Inhibition of LCAT activity in human plasma assessed as change in cholesteryl ester/free cholesterol ratio by cell based assay
T4 sequence (whole entry): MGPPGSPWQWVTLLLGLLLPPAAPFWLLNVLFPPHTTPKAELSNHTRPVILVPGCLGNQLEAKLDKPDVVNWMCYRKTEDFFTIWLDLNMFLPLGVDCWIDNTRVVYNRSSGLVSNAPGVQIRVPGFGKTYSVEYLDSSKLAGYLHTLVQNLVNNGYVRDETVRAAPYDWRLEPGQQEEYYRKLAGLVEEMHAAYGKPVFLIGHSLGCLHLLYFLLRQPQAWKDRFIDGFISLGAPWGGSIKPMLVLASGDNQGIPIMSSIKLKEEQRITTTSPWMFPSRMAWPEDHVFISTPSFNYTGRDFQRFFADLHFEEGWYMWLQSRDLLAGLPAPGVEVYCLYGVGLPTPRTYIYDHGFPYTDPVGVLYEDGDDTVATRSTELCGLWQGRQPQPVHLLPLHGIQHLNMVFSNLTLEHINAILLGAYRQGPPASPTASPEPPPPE

With O[C@@H](CN1c2cccc(-c3cccc(OC(F)(F)F)c3)c2CC[C@@H]1c1cccc(OC(F)(F)C(F)F)c1)C(F)(F)F the Activity [1] was “Active”, the inhibition in vivo at 30 mg/kg [2] was 67% and the bioavailability [3] was 27%. The IC50 [4] was 1200 nM, the Activity [5] was 36% and the Activity [6] was “inactive”. For the same molecule, the Activity [7] was “inactive”, the Activity [8] was “Dose-dependent effect” and the concentration at 120 h [9] was 2700 nM. The IC50 [10] was 1400 nM, the IC50 [11] was 100 nM and the Activity [12] was “inactive”. For the same molecule, the concentration at 120 h [13] was 400 nM, the inhibition in vivo at 3 mg/kg [14] was 11% and the Activity [15] was 4%. For the same molecule, the IC50 [16] was 39 nM, the Activity [17] was “Dose-dependent effect” and the Activity [18] was “Dose-dependent effect”. The bioavailability [19] was 5% and the Activity [20] was “inactive”.
